One assay addresses PARP2 (Mus musculus (Mouse), UniProt O88554). The assay can be described thus: PARP2 autoparsylation assay (LC/MS detection of nicotinamide). Format: biochemical. The settings on record: 20 nM enzyme, 250 μM β-NAD+, 60 min. On the procedure:
(§1) The autoparsylation activity of the TNKS 1/2 or PARP1/2 enzymes was measured by the liquid chromatography-mass spectrometry (LC/MS) detection of nicotinamide as readout. Compound activity in inhibiting the TNKS and PARP autoparsylation was evaluated by IC50 measurements.

Assay [1] has as its system Axin2 protein in SW480 cells. Briefly: Cellular ELISA assay of Axin2 protein stabilization. Format: cell-based. Conditions: Homo sapiens, 24 hrs, read-out: Axin AC50. In outline: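 SW480 colorectal cells seeded overnight, treated with compound, then lysed. Axin2 in lysates measured by sandwich ELISA: anti-Axin2 capture antibody coated at 1 μg/ml (pH 9.2), lysate 2 h at room temperature, biotinylated anti-Axin2 detection 2 h, then streptavidin-HRP 30 min.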

Assay [2] has as its target tankyrase 2 protein PARP domain, TNKS2P (Homo sapiens (Human), UniProt Q9H2K2). Briefly: TNKS2 autoparsylation assay (LC/MS detection of nicotinamide). The settings on record: read-out: TNKS2 AP IC50, 20 nM enzyme, 250 μM β-NAD+, 60 min.
The test system of assay [3] is Wnt ligand-induced signaling in HEK293 cells. Briefly: Wnt-responsive Super-TOpFlash (STF) luciferase reporter gene assay. Format: cell-based. Conditions: Homo sapiens, Wnt3A condition medium. In outline: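 HEK293 cells (8000/well, 5% FBS medium) treated with 20% mouse L-cell Wnt3A conditioned medium plus compounds in 10-point serial dilution; luciferase read next day. Inhibition calculated relative to Wnt3A-induced signal without compound and background without Wnt3A CM or compound.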
Background: In a reporter assay the amount or activity of a reporter protein is the signal.

Assay [4] concerns Non-small lung cancer ABC-1 cells. Briefly: Cellular proliferation assay (CellTiter-Glo). Format: cell-based. The settings on record: Homo sapiens, 72 h; ABC-1 cells, 3 days of compound treatment; read-out: ABC-1 IC50. Background: In ATP-based viability assays light output follows the ATP content of the culture.
Method: Cellular Proliferation Assay to Determine Compound Inhibition of Cancer Cell Growth
Viable cells were measured after 3 days of compound treatment using the CellTiter-Glo assay (Promega, G7570). Assay was performed following the manufacture protocol.
For assay [5], the target named is human tankyrase 1 PARP catalytic domain, TNKS1P (Homo sapiens (Human), UniProt O95271). Briefly: TNKS1 autoparsylation assay (LC/MS detection of nicotinamide). Conditions: read-out: TNKS1 AP IC50, 20 nM enzyme, 250 μM β-NAD+, 60 min.
human tankyrase 1 PARP catalytic domain, TNKS1P, sequence (O95271 1112-1317): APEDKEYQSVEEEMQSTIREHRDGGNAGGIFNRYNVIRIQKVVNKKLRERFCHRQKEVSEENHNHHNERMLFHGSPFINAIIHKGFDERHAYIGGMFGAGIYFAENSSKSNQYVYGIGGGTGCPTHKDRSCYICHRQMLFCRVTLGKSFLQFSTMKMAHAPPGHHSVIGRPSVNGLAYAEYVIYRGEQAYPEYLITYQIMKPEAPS
The target in another assay is Human PARP1 (Homo sapiens (Human), UniProt P09874). Briefly: PARP1 autoparsylation assay (LC/MS detection of nicotinamide). Format: biochemical. Conditions: 20 nM enzyme, 250 μM β-NAD+, 60 min. On the procedure:
as §1

tankyrase 2 protein PARP domain, TNKS2P, sequence (Q9H2K2 959-1164): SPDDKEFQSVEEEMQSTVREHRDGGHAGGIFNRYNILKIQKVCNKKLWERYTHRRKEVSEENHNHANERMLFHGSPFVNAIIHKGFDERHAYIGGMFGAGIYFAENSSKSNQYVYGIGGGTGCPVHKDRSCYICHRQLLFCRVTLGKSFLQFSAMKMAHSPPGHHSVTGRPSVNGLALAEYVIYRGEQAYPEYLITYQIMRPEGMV
PARP2, sequence (O88554 whole entry): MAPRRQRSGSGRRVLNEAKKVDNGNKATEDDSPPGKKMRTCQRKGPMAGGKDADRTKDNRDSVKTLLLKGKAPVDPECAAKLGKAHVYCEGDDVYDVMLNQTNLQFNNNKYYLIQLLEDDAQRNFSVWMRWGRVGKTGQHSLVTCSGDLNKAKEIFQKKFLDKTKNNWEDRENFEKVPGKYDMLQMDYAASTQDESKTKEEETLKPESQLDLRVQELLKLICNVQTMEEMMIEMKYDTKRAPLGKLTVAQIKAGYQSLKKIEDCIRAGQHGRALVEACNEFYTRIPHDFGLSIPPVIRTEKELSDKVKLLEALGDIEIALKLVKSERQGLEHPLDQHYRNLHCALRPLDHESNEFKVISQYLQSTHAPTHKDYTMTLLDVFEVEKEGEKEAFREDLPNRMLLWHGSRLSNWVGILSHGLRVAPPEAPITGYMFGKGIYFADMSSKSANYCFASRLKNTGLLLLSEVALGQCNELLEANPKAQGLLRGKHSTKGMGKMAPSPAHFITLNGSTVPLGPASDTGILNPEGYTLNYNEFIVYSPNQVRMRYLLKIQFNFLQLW
Human PARP1, sequence (P09874 whole entry): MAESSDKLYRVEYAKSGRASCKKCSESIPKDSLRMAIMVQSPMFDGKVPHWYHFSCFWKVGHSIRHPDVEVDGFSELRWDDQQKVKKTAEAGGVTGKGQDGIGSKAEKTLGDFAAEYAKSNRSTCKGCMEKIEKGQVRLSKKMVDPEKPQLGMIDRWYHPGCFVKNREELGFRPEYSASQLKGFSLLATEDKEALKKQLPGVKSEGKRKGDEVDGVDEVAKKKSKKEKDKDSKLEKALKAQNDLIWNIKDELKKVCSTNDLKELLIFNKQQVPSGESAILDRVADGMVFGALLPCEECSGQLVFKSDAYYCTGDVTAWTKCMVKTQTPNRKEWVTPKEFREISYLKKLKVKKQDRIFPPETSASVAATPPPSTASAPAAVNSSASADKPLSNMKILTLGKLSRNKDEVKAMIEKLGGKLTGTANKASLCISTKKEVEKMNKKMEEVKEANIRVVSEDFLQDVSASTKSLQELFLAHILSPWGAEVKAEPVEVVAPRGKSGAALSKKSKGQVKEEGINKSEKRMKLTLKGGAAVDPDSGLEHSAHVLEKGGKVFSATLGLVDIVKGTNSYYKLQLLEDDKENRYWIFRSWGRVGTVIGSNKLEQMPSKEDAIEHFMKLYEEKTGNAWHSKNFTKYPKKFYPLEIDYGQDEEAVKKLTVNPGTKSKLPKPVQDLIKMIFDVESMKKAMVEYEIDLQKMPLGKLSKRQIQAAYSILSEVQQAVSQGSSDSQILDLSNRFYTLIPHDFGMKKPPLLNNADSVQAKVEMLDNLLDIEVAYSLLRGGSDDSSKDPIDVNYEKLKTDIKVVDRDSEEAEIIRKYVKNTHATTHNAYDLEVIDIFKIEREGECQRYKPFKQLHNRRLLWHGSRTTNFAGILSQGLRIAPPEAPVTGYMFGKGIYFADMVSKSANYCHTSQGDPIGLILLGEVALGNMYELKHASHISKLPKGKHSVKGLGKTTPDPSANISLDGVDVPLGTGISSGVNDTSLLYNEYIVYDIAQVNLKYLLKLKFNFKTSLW

As usually defined, the IC50 is the concentration needed to halve the response being measured. As usually defined, the AC50 is the midpoint of the concentration-response curve, whichever way the signal moves. Consider `O=C(CN1CCC(C(=O)c2ccc(Cl)cc2)CC1)NCc1nc2c(c(=O)[nH]1)COCC2` [Example 2, 2-[4-(4-Chloro-benzoyl)-piperidin-1-yl]-N-(4-oxo-3,5,7,8-tetrahydro-4H-pyrano[4,3-d]-pyrimidin-2-ylmethyl)-acetamide], for which the IC50 against PARP2 was found to be 2.59 ± 0.29 µM; in assay [2], 7 nM; in assay [3], 10 ± 2 nM; in assay [4] it was 393 nM; in assay [5], 37 ± 2 nM; against Human PARP1, 9.1 ± 1 µM. Besides, the half-maximal activity concentration (AC50) in assay [1] is 205 ± 61 nM.
Regarding `CC(C)Oc1ccc(C(=O)C2CCN(CC(=O)NCc3nc4c(c(=O)[nH]3)COCC4)CC2)cc1` [Example 3, 2-[4-(4-Isopropoxy-benzoyl)-piperidin-1-yl]-N-(4-oxo-3,5,7,8-tetrahydro-4H-pyrano[4,3-c]pyrimidin-2-ylmethyl)-acetamide], the 50% inhibitory concentration (IC50) on PARP2 was 2.1 ± 0.24 µM; in assay [2] it was 14 ± 1 nM; in assay [3], 23 ± 2 nM; in assay [4], 105 nM; in assay [5], 35 ± 9 nM; against Human PARP1 it was 5.63 ± 0.73 µM. Moreover, the AC50 in assay [1] amounted to 62 ± 16 nM.
As for `O=C(CN1CCC(C(=O)c2ccc(F)cc2)CC1)NCc1nc2c(c(=O)[nH]1)CCCC2` [Example 10, 2-(4-(4-Fluorobenzoyl)piperidin-1-yl)-N-((4-oxo-3,4,5,6,7,8-hexahydroquinazolin-2-yl)methyl)acetamide], the half-inhibitory concentration (IC50) came out at 0.7 ± 0.08 µM on PARP2; 36 ± 2 nM in assay [2]; 27 ± 15 nM in assay [3]; 393 nM in assay [4]; 55 ± 3 nM in assay [5]; 2.7 ± 0.8 µM against Human PARP1. Further, the half-maximal activity concentration (AC50) in assay [1] amounted to 479 ± 24 nM.
Take `COc1ccc(C(=O)C2CCN(CC(=O)NCc3nc4c(c(=O)[nH]3)CCC4)CC2)cc1` [Example 11, 2-(4-(4-Methoxybenzoyl)piperidin-1-yl)-N-((4-oxo-4,5,6,7-tetrahydro-3H-cyclopenta[d]pyrimidin-2-yl)methyl)acetamide]: the IC50 against PARP2 worked out at 4.62 ± 0.02 µM; in assay [2], 110 ± 140 nM; in assay [3], 3 ± 1 nM; in assay [4] it was 18 nM; in assay [5], 28.5 ± 3.5 nM; at Human PARP1 it was 17.9 ± 1.8 µM. Moreover, in assay [1], the half-maximal activity concentration (AC50) came out at 15 ± 4 nM.
For `COc1ccc(C(=O)C2CCN(CC(=O)NCc3nc(C)c(C)c(=O)[nH]3)CC2)cc1` [Example 12, N-((4,5-Dimethyl-6-oxo-1,6-dihydropyrimidin-2-yl)methyl)-2-(4-(4-methoxybenzoyl)piperidin-1-yl)acetamide], the IC50 is > 19 µM against PARP2; 20 ± 3 nM in assay [2]; 7 ± 4 nM in assay [3]; 53 nM in assay [4]; 40 ± 2 nM in assay [5]; > 19 µM against Human PARP1. For the same molecule, the half-maximal activity concentration (AC50) in assay [1] is 32 ± 4 nM.
For the molecule `CC(C)(C)CN(Cc1nc2c(c(=O)[nH]1)COCC2)C(=O)CN1CCC(C(=O)c2ccc(F)cc2)CC1` [Example 14, 2-(4-(4-Fluorobenzoyl)piperidin-1-yl)-N-neopentyl-N-((4-oxo-4,5,7,8-tetrahydro-3H-pyrano[4,3-d]pyrimidin-2-yl)methyl)acetamide], the IC50 is > 19 µM against PARP2; 20 ± 1 nM in assay [2]; 49 ± 23 nM in assay [3]; 270 nM in assay [4]; 60 ± 7 nM in assay [5]; > 19 µM against Human PARP1. The AC50 in assay [1] was found to be 501 ± 29 nM.
As to `O=C(c1ccc(F)cc1)C1CCN(CC(=O)N(Cc2ccc(F)cc2)Cc2nc3c(c(=O)[nH]2)COCC3)CC1` [Example 15, 2-(4-(4-Fluorobenzoyl)piperidin-1-yl)-N-(4-fluorobenzyl)-N-((4-oxo-4,5,7,8-tetrahydro-3H-pyrano[4,3-d]pyrimidin-2-yl)methyl)acetamide], the IC50 at PARP2 is > 19 µM; in assay [2], 32 ± 1 nM; in assay [3], 101 ± 74 nM; in assay [4] it was 540 nM; in assay [5], 138 ± 1 nM; at Human PARP1, > 19 µM. In assay [1], the AC50 stood at 804 ± 91 nM.
In the case of `COc1ccc(CN(Cc2nc3c(c(=O)[nH]2)COCC3)C(=O)CN2CCC(C(=O)c3ccc(F)cc3)CC2)cc1` [Example 16, 2-(4-(4-Fluorobenzoyl)piperidin-1-yl)-N-(4-methoxybenzyl)-N-((4-oxo-4,5,7,8-tetrahydro-3H-pyrano[4,3-d]pyrimidin-2-yl)methyl)acetamide], the IC50 is > 19 µM on PARP2; 15 ± 2 nM in assay [2]; 49 ± 43 nM in assay [3]; 340 nM in assay [4]; 66 ± 4 nM in assay [5]; > 19 µM against Human PARP1. In assay [1], the AC50 came out at 587 ± 87 nM.
Take `O=C(c1ccc(F)cc1)C1CCN(CC(=O)N(Cc2nc3c(c(=O)[nH]2)COCC3)Cc2nc3ccccc3s2)CC1` [Example 17, N-(Benzo[d]thiazol-2-ylmethyl)-2-(4-(4-fluorobenzoyl)piperidin-1-yl)-N-((4-oxo-4,5,7,8-tetrahydro-3H-pyrano[4,3-d]pyrimidin-2-yl)methyl)acetamide]: the IC50 was > 19 µM against PARP2; 18 ± 1 nM in assay [2]; 49 ± 37 nM in assay [3]; 420 nM in assay [4]; 73 ± 3 nM in assay [5]; > 19 µM against Human PARP1. In addition, in assay [1], the AC50 turned out to be 125 ± 18 nM.
As for `COc1cccc(CN(Cc2nc3c(c(=O)[nH]2)COCC3)C(=O)CN2CCC(C(=O)c3ccc(F)cc3)CC2)c1` [Example 18, 2-(4-(4-Fluorobenzoyl)piperidin-1-yl)-N-(3-methoxybenzyl)-N-((4-oxo-4,5,7,8-tetrahydro-3H-pyrano[4,3-d]pyrimidin-2-yl)methyl)acetamide], the half-maximal inhibitory concentration (IC50) against PARP2 is > 19 µM; in assay [2], 23 nM; in assay [3], 72 ± 62 nM; in assay [4], 535 ± 7 nM; in assay [5] it was 94 ± 1 nM; on Human PARP1, > 19 µM. Moreover, in assay [1], the AC50 was determined as 493 ± 87 nM.
For the molecule `O=C(c1ccc(F)cc1)C1CCN(CC(=O)N(Cc2nc3c(c(=O)[nH]2)COCC3)CC2CC2)CC1` [Example 24, N-Cyclopropylmethyl-2-[4-(4-fluoro-benzoyl)-piperidin-1-yl]-N-(4-oxo-3,5,7,8-tetrahydro-4H-pyrano[4,3-d]pyrimidin-2-ylmethyl)-acetamide], the half-maximal inhibitory concentration (IC50) on PARP2 is > 19 µM; in assay [4], 276 ± 37 nM; in assay [5], 35 ± 10 nM; at Human PARP1, > 19 µM. In addition, the AC50 in assay [1] is 320 ± 180 nM.
Take `O=C(c1ccc(F)cc1)C1CCN(CC(=O)N(Cc2nc3c(c(=O)[nH]2)COCC3)C[C@H]2CCCO2)CC1` [Example 29, (R)-2-(4-(4-Fluorobenzoyl)piperidin-1-yl)-N-((4-oxo-4,5,7,8-tetrahydro-3H-pyrano[4,3-d]pyrimidin-2-yl)methyl)-N-((tetrahydrofuran-2-yl)methyl)acetamide]: the IC50 on PARP2 was > 19 µM; in assay [2] it was 38 ± 1 nM; in assay [3] it was 79 ± 80 nM; in assay [4], 1430 nM; in assay [5], 148 ± 10 nM; against Human PARP1, > 19 µM. The AC50 in assay [1] stood at 990 ± 220 nM.
As for `O=C(CN1CCC2(CC1)Cc1cc(F)ccc1C2=O)NCc1nc2c(c(=O)[nH]1)COCC2` [Example 61, 2-(5-Fluoro-1-oxo-1,3-dihydrospiro[indene-2,4′-piperidine]-1′-yl)-N-((4-oxo-4,5,7,8-tetrahydro-3H-pyrano[4,3-d]pyrimidin-2-yl)methyl)acetamide], the IC50 is > 19 µM against PARP2; 8 ± 2.6 nM in assay [2]; 1600 ± 800 nM in assay [3]; 8120 nM in assay [4]; 25 ± 6 nM in assay [5]; 6.5 ± 1.7 µM against Human PARP1.

The record behind these values is patent US9181266B2, “2-piperidin-1-yl-acetamide compounds for use as tankyrase inhibitors” (NOVARTIS AG, priority 2011, dated 2015).
